Measurements published in patent publication EP0067641A2, “Amino acids” (BEECHAM GROUP PLC, priority 1981, dated 1982).
Marks after values point to notes of the source that are not given here.

Test system: rats made hyperlipidaemic by diet
Experiment: Effects on serum lipids in vivo in rats made hyperlipidaemic by diet
Parameters: species or system Male Sprague-Dawley rats
Conditions: compound fed at 0.1% of the powdered diet (approximately 100 mg/kg/day), 7 days, (-) lower, (+) higher than control; for Percentage difference from Control Values in High Density lipoprotein (HDL) cholesterol: HDL fraction by heparin-manganous chloride precipitation, four pooled samples per group; for Percentage difference from Control Values in Total Serum Cholesterol / Percentage difference from Control Values in Total Serum Triglyceride: semi-synthetic diet rich in sucrose and cholesterol
Procedure: The compounds of the Examples above were tested for their effects on serum lipids in vivo using rats made hyperlipidaemic by diet*.
Male Sprague-Dawley rats, 80-100 g , were randomised into groups of 8 after 5 - 7 days of feeding on the diet. The compounds were fed to the rats at a concentration of * 0.1% of the powdered diet (ie approximately 100 mg/kg/ day), unless otherwise stated. The control groups were fed only the diet. At the end of the experiment, ie after 7 days, the rats were killed and their individual total serum cholesterol and triglyceride measured in mg/100 ml using a Technicon Autoanalyser. The high density lipoprotein (HDL)-cholesterol fraction, which was obtained from the serum by precipitation with heparin- manganous chloride, was measured on four 'pooled' samples from each group.
^* A semi-synthetic diet rich in sucrose and cholesterol.

SMILES | Percentage difference from Control Values in High Density lipoprotein (HDL) cholesterol | Percentage difference from Control Values in Total Serum Cholesterol | Percentage difference from Control Values in Total Serum Triglyceride
O=C(O)C(Cc1ccc(Cl)cc1)NCc1ccco1 (racemic) [Example 2, N-(2-Furyl)methyl-DL-(4-chlorophenyl)-alanine] | +84* % | +61* % | -47* %
O=C(O)[C@H](Cc1ccccc1)NCc1ccco1 [Example 6, N-(2-Furyl)methyl-L-phenylalanine] | +26* % |  | +39%
O=C(O)[C@H](Cc1ccccc1)NCc1cccc2ccccc12 [Example 3, N-(1-Naphthyl)methyl-L-phenylalanine] | +41* % | +62* % | -63* %
O=C(O)C(Cc1ccc(Cl)cc1)NCc1ccc(Cl)s1 (racemic) [Example 1, N-[2-(5-chloro)thienyl]methyl-DL-(4-chlorophenyl) alanine] | +31* % | +16% | -42* %
O=C(O)[C@H](Cc1ccccc1)NCc1ccc2ccccc2c1 [Example 5, N-(2-Naphthyl)methyl-L-phenylalanine] | +30* % | +17* % | -57* %
O=C(O)C(Cc1ccc(Cl)cc1)NCc1ccccn1 (racemic) [Example 4, N-(2-pyridyl)methyl-DL-(4-chlorophenyl) alanine] | +44* % | +78* % | -30* %
